{"source": "patent US20200268728A1", "about": "“DRUG TARGETING CANCER STEM CELL” (Sumitomo Dainippon Pharma Co., Ltd., priority 2016, published 2020)", "assay_in_all_cases": "Sphere-forming ability of cultured cancer cell lines (Test Example 10)", "assay_type_in_all_cases": "cell-based", "key": {"Capan-2": {"system": "Capan-2", "details": "Homo sapiens, 96 h; Capan-2 pancreatic cancer cell line, 4 days", "experimental": "(§1) The colon cancer cell lines SW480, DLD1, HCT15, HT29, SW948, LS174T, LS411N, SW620, LoVo, HCT116, Colo205, and Hs698T, the pancreatic cancer cell lines MiaPaca2, HPAFII, Capan2, and Panc1, the head and neck cancer cell line FaDu, the breast cancer cell lines HCC1954 and T47D, the bladder cancer cell line SW780, the liver cancer cell line HepG2, the neuroblastoma cell lines U87MG and U251, the lung cancer cell lines H460, H1437, and A549, the prostate cancer cell lines DU145 and PC3, the soft tissue tumor cell line HT1080, the testicular cancer cell line NTERA2, and the ovarian cancer cell line SKOV3 was suspended in the sphere formation medium (DMEM-F12 medium of Test Example 3 was used), and seeded in a 384-well plate with Ultra-Low Attachment surface (Corning) in an amount of 5×10^3-10×10^3 cells/well. The compound of Example 24 was then added into each well to adjust the final concentration to 10-10000 nmol/L. The plate was cultured at 37° C. and 5% carbon dioxide in an incubator for 4 days. After the culture, CellTiterGlo (Promega) was added into all of the wells, and the plate was allowed to stand at room temperature for 10 minutes to measure the intensity of luminescence of each well. The concentrations of each test compound for 50% inhibition of cell proliferation to the cell lines (Sphere IC50 value; μmol/L) was calculated from the measured intensity of luminescence. When each gene mutation in Table is reported, the mutation is represented by “+” (gene mutation information is cited from the ATCC website (https://www.atcc.org/en/Products/Cells_and_Microorganisms/Cell_Lines/Cell_lines_by_genetic_mutation.aspx), Cancer Cell Line Encyclopedia (https://portals.broadinstitute.org/ccle_legacy/home), Proc. Natl. Acad. Sci. USA 94 (1997) 10330-10334)."}, "FaDu": {"system": "FaDu", "details": "Homo sapiens, 96 h; FaDu head and neck cancer cell line, 4 days", "experimental": "as §1"}, "LS411N": {"system": "LS411N", "details": "Homo sapiens, LS-411N, 96 h; LS411N colon cancer cell line, 4 days", "experimental": "as §1"}, "LS 174T": {"system": "LS 174T", "details": "Homo sapiens, LS174T, 96 h; LS 174T colon cancer cell line, 4 days", "experimental": "as §1"}, "SW 780": {"system": "SW 780", "details": "Homo sapiens, SW780, 96 h; SW 780 bladder cancer cell line, 4 days", "experimental": "as §1"}, "HT-1080": {"system": "HT-1080", "details": "Homo sapiens, 96 h; HT-1080 soft tissue tumor cell line, 4 days", "experimental": "as §1"}, "U-87 MG": {"system": "U-87 MG", "details": "Homo sapiens, 96 h; U-87 MG glioblastoma cell line, 4 days", "experimental": "as §1"}, "LoVo": {"system": "LoVo", "details": "Homo sapiens, 96 h; LoVo colon cancer cell line, 4 days", "experimental": "as §1"}, "SW620": {"system": "SW620", "details": "Homo sapiens, SW-620, 96 h; SW620 colon cancer cell line, 4 days", "experimental": "as §1"}, "Hs 698.T": {"system": "Hs 698.T", "details": "96 h; Hs 698.T colon cancer cell line, 4 days", "experimental": "as §1"}, "U-251": {"system": "U-251", "details": "Homo sapiens, 96 h; U-251 neuroblastoma cell line, 4 days", "experimental": "as §1"}, "DLD-1": {"system": "DLD-1", "details": "Homo sapiens, 96 h; DLD-1 colon cancer cell line, 4 days", "experimental": "as §1"}, "SW480": {"system": "SW480", "details": "Homo sapiens, 96 h; SW480 colon cancer cell line, 4 days", "experimental": "as §1"}, "HT-29": {"system": "HT-29", "details": "Homo sapiens, 96 h; HT-29 colon cancer cell line, 4 days", "experimental": "as §1"}, "HCC1954": {"system": "HCC1954", "details": "Homo sapiens, 96 h; HCC1954 breast cancer cell line, 4 days", "experimental": "as §1"}, "HPAF-II": {"system": "HPAF-II", "details": "Homo sapiens, 96 h; HPAF-II pancreatic cancer cell line, 4 days", "experimental": "as §1"}, "T-47D": {"system": "T-47D", "details": "Homo sapiens, T47D, 96 h; T-47D breast cancer cell line, 4 days", "experimental": "as §1"}, "COLO 205": {"system": "COLO 205", "details": "Homo sapiens, 96 h; COLO 205 colon cancer cell line, 4 days", "experimental": "as §1"}, "HCT 116": {"system": "HCT 116", "details": "Homo sapiens, 96 h; HCT 116 colon cancer cell line, 4 days", "experimental": "as §1"}, "NTERA-2": {"system": "NTERA-2", "details": "NTERA2, 96 h; NTERA-2 testicular cancer cell line, 4 days", "experimental": "as §1"}, "Hep G2": {"system": "Hep G2", "details": "Homo sapiens, HepG2, 96 h; Hep G2 liver cancer cell line, 4 days", "experimental": "as §1"}, "HCT-15": {"system": "HCT-15", "details": "Homo sapiens, 96 h; HCT-15 colon cancer cell line, 4 days", "experimental": "as §1"}, "PC-3": {"system": "PC-3", "details": "Homo sapiens, 96 h; PC-3 prostate cancer cell line, 4 days", "experimental": "as §1"}, "MIA PaCa-2": {"system": "MIA PaCa-2", "details": "Homo sapiens, 96 h; MIA PaCa-2 pancreatic cancer cell line, 4 days", "experimental": "as §1"}, "NCI-H460": {"system": "NCI-H460", "details": "Homo sapiens, 96 h; NCI-H460 lung cancer cell line, 4 days", "experimental": "as §1"}, "A549": {"system": "A549", "details": "Homo sapiens, 96 h; A549 lung cancer cell line, 4 days", "experimental": "as §1"}, "SW948": {"system": "SW948", "details": "Homo sapiens, 96 h; SW948 colon cancer cell line, 4 days", "experimental": "as §1"}}, "data": [{"smiles": "O=C(Nc1cn(Cc2cc(F)c(F)c(F)c2)cn1)c1cnc(CO)c(C(F)F)c1", "note": "[Example 24, 5-(difluoromethyl)-6-(hydroxymethyl)-N-[1-(3,4,5-trifluorobenzyl)-1H-imidazol-4-yl]nicotinamide]", "values": [{"measurement": "IC50", "setting": "Capan-2", "value": "> 10000", "unit": "nM"}, {"measurement": "IC50", "setting": "FaDu", "value": 9, "unit": "nM"}, {"measurement": "IC50", "setting": "LS411N", "value": 19, "unit": "nM"}, {"measurement": "IC50", "setting": "LS 174T", "value": 15, "unit": "nM"}, {"measurement": "IC50", "setting": "SW 780", "value": 56, "unit": "nM"}, {"measurement": "IC50", "setting": "HT-1080", "value": "> 10000", "unit": "nM"}, {"measurement": "IC50", "setting": "U-87 MG", "value": 89, "unit": "nM"}, {"measurement": "IC50", "setting": "LoVo", "value": 28, "unit": "nM"}, {"measurement": "IC50", "setting": "SW620", "value": 27, "unit": "nM"}, {"measurement": "IC50", "setting": "Hs 698.T", "value": "> 10000", "unit": "nM"}, {"measurement": "IC50", "setting": "U-251", "value": "> 10000", "unit": "nM"}, {"measurement": "IC50", "setting": "DLD-1", "value": 7, "unit": "nM"}, {"measurement": "IC50", "setting": "SW480", "value": 4, "unit": "nM"}, {"measurement": "IC50", "setting": "HT-29", "value": 9, "unit": "nM"}, {"measurement": "IC50", "setting": "HCC1954", "value": 23, "unit": "nM"}, {"measurement": "IC50", "setting": "HPAF-II", "value": 764, "unit": "nM"}, {"measurement": "IC50", "setting": "T-47D", "value": 46, "unit": "nM"}, {"measurement": "IC50", "setting": "COLO 205", "value": 142, "unit": "nM"}, {"measurement": "IC50", "setting": "HCT 116", "value": 91, "unit": "nM"}, {"measurement": "IC50", "setting": "NTERA-2", "value": "> 10000", "unit": "nM"}, {"measurement": "IC50", "setting": "Hep G2", "value": 72, "unit": "nM"}, {"measurement": "IC50", "setting": "HCT-15", "value": 8, "unit": "nM"}, {"measurement": "IC50", "setting": "PC-3", "value": "> 10000", "unit": "nM"}, {"measurement": "IC50", "setting": "MIA PaCa-2", "value": 8, "unit": "nM"}, {"measurement": "IC50", "setting": "NCI-H460", "value": 883, "unit": "nM"}, {"measurement": "IC50", "setting": "A549", "value": "> 10000", "unit": "nM"}, {"measurement": "IC50", "setting": "SW948", "value": 9, "unit": "nM"}]}]}
